Experimental data: the supplement of paper PMC10307832

How the values were obtained:
Assay in all cases: relative viability (nuclei count vs DMSO), 5 days (fraction); higher = more cells survive
[1] = compound: CN1CCN(c2ccc3nc(-c4c(N)c5c(F)cccc5[nH]c4=O)[nH]c3c2)CC1 [Dovitinib] + COc1cccc2cc(-c3nc([C@H]4CC[C@H](C(=O)O)CC4)n4ncnc(N)c34)[nH]c12 [OSI-027] (partner 0.5 µM)
How it was run: (§1)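 Lung cancer cell lines in 1536-well plates got either a single drug or a fixed anchor-drug dose together with five library-drug doses (not always all listed) in √10 steps, by pin tool, on the day after seeding. Nuclei were counted after 5 days, and relative viability is the treated-to-vehicle ratio of nuclei counts. Values are medians of duplicate plates.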

[2] = compound: CN1CCN(c2ccc3nc(-c4c(N)c5c(F)cccc5[nH]c4=O)[nH]c3c2)CC1 [Dovitinib] + NC(=O)Nc1cc(-c2cccc(F)c2)sc1C(=O)N[C@H]1CCCNC1 [AZD7762] (partner 0.2 µM)
How it was run: as §1

[3] = compound: CN1CCN(c2ccc3nc(-c4c(N)c5c(F)cccc5[nH]c4=O)[nH]c3c2)CC1 [Dovitinib] + COc1cc2c(Oc3ccc(NC(=O)C4(C(=O)Nc5ccc(F)cc5)CC4)cc3F)ccnc2cc1OCCCN1CCOCC1 [Foretinib] (partner 0.25 µM)
How it was run: as §1

[4] = compound: CN1CCN(c2ccc3nc(-c4c(N)c5c(F)cccc5[nH]c4=O)[nH]c3c2)CC1 [Dovitinib] + Nc1nc2[nH]cc(CCc3ccc(C(=O)N[C@@H](CCC(=O)O)C(=O)O)cc3)c2c(=O)[nH]1 [Pemetrexed] (partner 0.2 µM)
How it was run: as §1

Cell Line	relative viability ([1]; first compound 0.02 µM)	relative viability ([1]; first compound 0.06325 µM)	relative viability ([1]; first compound 0.2 µM)	relative viability ([1]; first compound 0.6325 µM)	relative viability ([1]; first compound 2 µM)	relative viability ([2]; first compound 0.02 µM)	relative viability ([2]; first compound 0.06325 µM)	relative viability ([2]; first compound 0.2 µM)	relative viability ([2]; first compound 0.6325 µM)	relative viability ([2]; first compound 2 µM)	relative viability ([3]; first compound 0.02 µM)	relative viability ([3]; first compound 0.06325 µM)	relative viability ([3]; first compound 0.2 µM)	relative viability ([3]; first compound 0.6325 µM)	relative viability ([3]; first compound 2 µM)	relative viability ([4]; first compound 0.02 µM)	relative viability ([4]; first compound 0.06325 µM)	relative viability ([4]; first compound 0.2 µM)	relative viability ([4]; first compound 0.6325 µM)	relative viability ([4]; first compound 2 µM)
NCI-H2342	0.634	0.579	0.603	0.685	0.722	0.561	0.583	0.488	0.8	0.473	1.14	1.02	1.09	1.17	1.01	0.787	0.74	0.74	0.835	0.777
A-427	0.524	0.432	0.455	0.452	0.399	0.767	0.733	0.674	0.665	0.697	1.17	0.996	1.02	1.07	0.956	0.907	0.988	1.04	0.967	1.06
H3255	0.637	0.601	0.627	0.716	0.585	0.966	0.907	1	0.89	0.809	0.877	0.864	0.904	0.982	0.966	0.609	0.579	0.568	0.64	0.599
NCI-H1734	0.655	0.632	0.687	0.575	0.55	0.532	0.505	0.475	0.583	0.71	0.9	0.813	0.834	0.735	0.834	0.443	0.442	0.414	0.403	0.418
NCI-H1993	0.599	0.545	0.597	0.505	0.573	1.01	0.724	0.887	0.985	0.849	0.759	0.714	0.742	0.771	0.771	0.665	0.521	0.633	0.594	0.486
NCI-H1437	0.877	0.881	0.867	0.903	0.916	1.19	1.09	1.22	1.11	1.09	1.24	1.29	1.22	1.2	1.27	0.293	0.327	0.31	0.288	0.308
201T	0.704	0.747	0.748	0.898	0.724	0.615	0.814	0.598	0.606	0.562	0.946	1.01	1.07	1.09	1.06	0.387	0.392	0.366	0.34	0.298
NCI-H358	0.703	0.769	0.905	0.819	0.739	0.483	0.518	0.444	0.544	0.517	0.619	0.674	0.683	0.626	0.761	0.169	0.171	0.186	0.18	0.176
ChaGo-K-1	0.549	0.556	0.635	0.542	0.614	0.901	0.891	0.892	0.9	0.857	0.848	0.888	0.906	0.892	0.909	0.263	0.25	0.251	0.258	0.26
LOU-NH91	0.786	0.662	0.731	0.817	0.721	0.783	0.736	0.707	0.778	0.783	0.926	0.896	0.95	0.921	1.05	0.368	0.386	0.404	0.363	0.358
HOP-62	0.794	0.79	0.866	0.925	0.855	0.364	0.534	0.697	0.62	0.551	1.05	1.18	1.08	1.28	1.07	0.272	0.337	0.32	0.269	0.385
NCI-H1915	0.559	0.635	0.621	0.602	0.647	0.609	0.708	0.705	0.614	0.693	1.07	1.08	1.1	1.07	1.06	0.459	0.466	0.536	0.473	0.467
NCI-H3122	1.02	0.959	1	0.876	0.915	0.926	1.02	0.995	0.925	0.93	1.06	0.963	0.875	0.985	0.853	0.194	0.207	0.199	0.186	0.189
NCI-H1651	0.733	0.723	0.765	0.77	0.688	0.45	0.507	0.505	0.466	0.429	0.899	0.792	0.836	0.796	0.721	0.553	0.544	0.563	0.64	0.544
NCI-H838	0.324	0.41	0.385	0.37	0.471	0.864	0.979	0.912	0.986	0.96	1.05	1.02	1.04	0.937	0.961	0.262	0.277	0.229	0.234	0.265
NCI-H596	0.644	0.776	0.669	0.808	0.779	1.17	1.09	1	1.03	1.1	0.84	0.614	0.848	0.961	0.874	0.512	0.493	0.506	0.51	0.532
